Counter-ions that a name gives are not always drawn.
Tested on: proteasome
Assay: Cellular proteasome inhibition test: accumulation of 4Ub-Luc reporter (luciferase activity) in DLD-1 4Ub-Luc cell line
Type: cell-based, human
Conditions: DLD-1 4Ub-Luc cells, 8 hours, epoxomicin = 100%
Experimental: Biological tests were carried out according to protocols described in the following articles: Ausseil F. et al. J. Biomol Screen. 2007, 12, 106-116 and Vandenberghe I. et al. Biochemical Pharmacology 2008, 76, 453-462.
In order to select novel proteasome inhibitor compounds, it is necessary to indirectly measure the activity of this proteasome within cells. To this end, we constructed a stable cell line, DLD-1 4Ub-Luc, arising from a human colon cancer cell line, which produces a chimeric reporter protein called 4Ub-Luc. This protein is a fusion between a 4-ubiquitin (4Ub) label and luciferase (Luc). This label is capable to direct every proteins that carry it toward the proteasome. The 4Ub-Luc protein is thus efficiently degraded by the proteasome, in contrast to the “wild” non-fused Luc protein. When the DLD-1 4Ub-Luc cell line is treated with a proteasome inhibitor, the fusion protein is much less efficiently degraded and accumulates in the cell. This accumulation is detected by an increase in luciferase activity in the treated extract compared to the extract from untreated cells. The control consists of verifying that the inhibitor has no effect on accumulation of the wild Luc protein produced by the stable DLD-1 RF cell line. For both cell lines and for each product an induction factor is determined for the product tested (or the reference) corresponding to the ratio between the luciferase activities measured in cells treated with this product (or the reference) and cells treated with solvent alone.
The product's activity is then defined by its relative induction factor, i.e., the ratio of its induction factor (IF % luminescence) to that of the reference molecule epoxomicin (IF=100%; see data presented in the table below).
Thus, the test established by Pierre-Fabre is a cellular test that has the advantage, compared to a purely enzymatic test, of detecting only products capable of penetrating the cell.
Two cell lines are used for this test: DLD-1 RF and DLD-1 4Ub-Luc. The culture medium used is as follows: • MEM • 5% fetal calf serum • 5 ml of penicillin-streptomycin • 2.5 ml of FUNGIZONE® (Amphotericin B) • 10 ml of […]
Day 1: Inoculate white 96-well culture-treated plates (PerkinElmer White ViewPlate, product no. 6005181) with 100 μl of 1·10^5 c/ml cell suspension per well. Incubate for 24 hours so that the cells adhere. On each plate five columns will be inoculated with DLD-1 4Ub-Luc and five others with DLD-1 RF according to diagram 1 below.
Day 2: Remove the medium by turning the plates upside down on cotton, and then carry out the treatment with the compounds of the invention, with solvent alone or with a reference compound such as epoxomicin. […]
The columns are paired (examples 2 and 8, 3 and 9, 4 and 10 and 5 and 11) and treated with the same compound. Columns 6 and 7 receive the experimental control, namely 0.1% DMSO in culture medium for wells B, C, D, and E of columns 6 and 7, and the positive control (10^−7 M epoxomicin) in wells F and G.
After incubation, turn the plate upside down on cotton to empty the wells, rinse with 50 μl of PBS to remove any trace of the cytotoxin tested and then add 50 μl of 5× passive lysis buffer (Promega, product no. E1941) diluted to ⅕ in water. Shake energetically using a plate shaker for 5 to 10 minutes at room temperature before freezing at −20° C.
Luciferase activity is measured using a Luciferase Assay System 10-Pack kit (Promega, product no. E1501).
On the day luciferase activity is to be measured, defrost the plates and wait until they have returned to room temperature. The optimal temperature for luciferase activity is 20-25° C.
Reconstitute the firefly luciferase substrate by defrosting the buffer and then adding 10 ml of buffer to the bottle containing the freeze-dried substrate. Wait until the solution is at room temperature before beginning the assay. […]

[1] = concentration tested 5 · 10^−6 M
[2] = concentration tested 5 · 10^−7 M

SMILES: C=C(C(=O)[C@H](OC(C)=O)[C@@H](C)[C@H]1[C@@H](OC(C)=O)C[C@@]2(C)[C@@H]3CC[C@H]4[C@H](C)C(=O)C=C[C@@]45C[C@@]35CC[C@]12C)[C@@H](C)COC(=O)Nc1ccccc1 [Compound 20, 26-N-phenylcarbamate-neoboutomellerone]
- relative induction factor (IF % luminescence) versus epoxomicin [1]: 60%
- relative induction factor (IF % luminescence) versus epoxomicin [2]: 6%
- relative induction factor (IF % luminescence) versus epoxomicin (concentration tested 10^−6 M): 42%

SMILES: C=C(C(=O)[C@H](OC(C)=O)[C@@H](C)[C@H]1[C@@H](OC(C)=O)C[C@@]2(C)[C@@H]3CC[C@H]4[C@H](C)C(=O)C=C[C@@]45C[C@@]35CC[C@]12C)[C@@H](C)COC(=O)N1CCN(C)CC1 [Compound 22, 26-N—(N-methylpiperazine)carbamate-neoboutomellerone hydrochloride]
- relative induction factor (IF % luminescence) versus epoxomicin [1]: 4%
- relative induction factor (IF % luminescence) versus epoxomicin [2]: 8%
- relative induction factor (IF % luminescence) versus epoxomicin (concentration tested 10^−5 M): 1%
- relative induction factor (IF % luminescence) versus epoxomicin (concentration tested 10^−6 M): 68%

SMILES: C=C(C(=O)[C@H](O)[C@@H](C)[C@H]1[C@@H](OC(C)=O)C[C@@]2(C)[C@@H]3CC[C@H]4[C@H](C)C(=O)C=C[C@@]45C[C@@]35CC[C@]12C)[C@@H](C)COC(=O)N1CCN(C)CC1 [Compound 23, 26-N—(N-methylpiperazine)carbamate-22-deacetyl-neoboutomellerone]
- relative induction factor (IF % luminescence) versus epoxomicin [1]: 7%
- relative induction factor (IF % luminescence) versus epoxomicin [2]: 15%
- relative induction factor (IF % luminescence) versus epoxomicin (concentration tested 10^−5 M): 2%
- relative induction factor (IF % luminescence) versus epoxomicin (concentration tested 10^−6 M): 69%

SMILES: C=C(C(=O)[C@H](O)[C@@H](C)[C@H]1[C@@H](OC(C)=O)C[C@@]2(C)[C@@H]3CC[C@H]4[C@H](C)C(=O)C=C[C@@]45C[C@@]35CC[C@]12C)[C@@H](C)COC(=O)N1CCN(C)CC1 [Compound 24, 26-N—(N-methylpiperazine)carbamate-22-deacetyl-neoboutomellerone hydrochloride]
- relative induction factor (IF % luminescence) versus epoxomicin (concentration tested 5 · 10^−6 M, hydrochloride): 5%
- relative induction factor (IF % luminescence) versus epoxomicin (concentration tested 5 · 10^−7 M, hydrochloride): 12%
- relative induction factor (IF % luminescence) versus epoxomicin (concentration tested 10^−5 M, hydrochloride): 1%
- relative induction factor (IF % luminescence) versus epoxomicin (concentration tested 10^−6 M, hydrochloride): 70%

SMILES: C=C(C(=O)[C@H](OC(C)=O)[C@@H](C)[C@H]1[C@@H](OC(C)=O)C[C@@]2(C)[C@@H]3CC[C@H]4[C@H](C)C(=O)C=C[C@@]45C[C@@]35CC[C@]12C)[C@@H](C)COC(=O)Nc1ccc(N(C)C)cc1 [Compound 25, 26-N-(4-N,N-dimethylaniline)carbamate-neoboutomellerone]
- relative induction factor (IF % luminescence) versus epoxomicin [1]: 51%
- relative induction factor (IF % luminescence) versus epoxomicin [2]: 19%
- relative induction factor (IF % luminescence) versus epoxomicin (concentration tested 10^−5 M): 60%
- relative induction factor (IF % luminescence) versus epoxomicin (concentration tested 10^−6 M): 49%

SMILES: C=C(C(=O)[C@H](O)[C@@H](C)[C@H]1[C@@H](OC(C)=O)C[C@@]2(C)[C@@H]3CC[C@H]4[C@H](C)C(=O)C=C[C@@]45C[C@@]35CC[C@]12C)[C@@H](C)COC(=O)Nc1ccc(N(C)C)cc1 [Compound 26, 26-N-(4-N,N-dimethylaniline)carbamate-22-deacetyl-neoboutomellerone]
- relative induction factor (IF % luminescence) versus epoxomicin [1]: 54%
- relative induction factor (IF % luminescence) versus epoxomicin [2]: 11%
- relative induction factor (IF % luminescence) versus epoxomicin (concentration tested 10^−5 M): 37%
- relative induction factor (IF % luminescence) versus epoxomicin (concentration tested 10^−6 M): 53%

SMILES: C=C(C(=O)[C@H](OC(C)=O)[C@@H](C)[C@H]1[C@@H](OC(C)=O)C[C@@]2(C)[C@@H]3CC[C@H]4[C@H](C)/C(=N/O)C=C[C@@]45C[C@@]35CC[C@]12C)[C@@H](C)CO [Compound 27, 3-anti-oxime-neoboutomellerone]
- relative induction factor (IF % luminescence) versus epoxomicin [1]: 103%
- relative induction factor (IF % luminescence) versus epoxomicin [2]: 1%
- relative induction factor (IF % luminescence) versus epoxomicin (concentration tested 10^−6 M): 1%

SMILES: C=C(C(=O)[C@H](OC(C)=O)[C@@H](C)[C@H]1[C@@H](OC(C)=O)C[C@@]2(C)[C@@H]3CC[C@H]4[C@H](C)/C(=N/NC(N)=O)C=C[C@@]45C[C@@]35CC[C@]12C)[C@@H](C)CO [Compound 35, 3-semicarbazone-neoboutomellerone]
- relative induction factor (IF % luminescence) versus epoxomicin [1]: 99%
- relative induction factor (IF % luminescence) versus epoxomicin (concentration tested 10^−5 M): 30%
- relative induction factor (IF % luminescence) versus epoxomicin (concentration tested 10^−6 M): 1%

SMILES: C=C(C(=O)[C@H](OC(C)=O)[C@@H](C)[C@H]1[C@@H](OC(C)=O)C[C@@]2(C)[C@@H]3CC[C@H]4[C@H](C)/C(=N/OCc5ccccc5)C=C[C@@]45C[C@@]35CC[C@]12C)[C@@H](C)CO [Compound 36, 3-anti-O-benzyloxime-neoboutomellerone]
- relative induction factor (IF % luminescence) versus epoxomicin [1]: 12%
- relative induction factor (IF % luminescence) versus epoxomicin (concentration tested 10^−5 M): 6%
- relative induction factor (IF % luminescence) versus epoxomicin (concentration tested 10^−6 M): 1%

SMILES: CC(=O)O[C@H]1C[C@@]2(C)C3CCC4[C@H](C)C(=O)C=C[C@@]45C[C@@]35CC[C@]2(C)[C@H]1[C@H](C)[C@@H](OC(C)=O)C1=C(CN=[N+]=[N-])C(C)CO1 (stereo partly drawn) [Compound 47, Azido-methyl-dihydro-furan-neoboutomellerone Derivative]
- relative induction factor (IF % luminescence) versus epoxomicin [1]: 78%
- relative induction factor (IF % luminescence) versus epoxomicin (concentration tested 10^−5 M): 36%
- relative induction factor (IF % luminescence) versus epoxomicin (concentration tested 10^−6 M): 7%

SMILES: C=C(C(=O)[C@H](OC(C)=O)[C@@H](C)[C@H]1[C@@H](OC(C)=O)C[C@@]2(C)C3CCC4[C@H](C)C(=O)C=C[C@@]45C[C@@]35CC[C@]12C)[C@@H](C)COC(=O)CCl (stereo partly drawn) [Compound 49, 26-chloro-acetate-neoboutomellerone Derivative]
- relative induction factor (IF % luminescence) versus epoxomicin [1]: 44%
- relative induction factor (IF % luminescence) versus epoxomicin (concentration tested 10^−5 M): 15%
- relative induction factor (IF % luminescence) versus epoxomicin (concentration tested 10^−6 M): 19%

SMILES: C=C([C@@H](C)COC)C1(O)O[C@H]2C[C@@]3(C)C4CCC5[C@H](C)C(=O)C=C[C@@]56C[C@@]46CC[C@]3(C)[C@H]2[C@H](C)[C@H]1OC(C)=O (stereo partly drawn) [Compound 51, 16-deacetyl-26-methoxy-neoboutomellerone-hemiacetal]
- relative induction factor (IF % luminescence) versus epoxomicin [1]: 31%
- relative induction factor (IF % luminescence) versus epoxomicin (concentration tested 10^−5 M): 60%
- relative induction factor (IF % luminescence) versus epoxomicin (concentration tested 10^−6 M): 1%

SMILES: C=C(C(=O)[C@H](OC(C)=O)[C@@H](C)[C@H]1[C@@H](OC(C)=O)C[C@@]2(C)C3CCC4[C@H](C)C(=O)C=C[C@@]45C[C@@]35CC[C@]12C)[C@@H](C)COC(=O)CNC(=O)OC(C)(C)C (stereo partly drawn) [Compound 56, Neoboutomellerone 26-N-Boc-glycinate]
- relative induction factor (IF % luminescence) versus epoxomicin [1]: 34%
- relative induction factor (IF % luminescence) versus epoxomicin (concentration tested 10^−5 M): 7%
- relative induction factor (IF % luminescence) versus epoxomicin (concentration tested 10^−6 M): 21%

SMILES: C=C(C(=O)[C@H](O)[C@@H](C)[C@H]1[C@@H](OC(C)=O)C[C@@]2(C)C3CCC4[C@H](C)C(=O)C=C[C@@]45C[C@@]35CC[C@]12C)[C@@H](C)COC(=O)CNC(=O)OC(C)(C)C (stereo partly drawn) [Compound 58, 22-deacetyl-neoboutomellerone 26-N-Boc-glycinate]
- relative induction factor (IF % luminescence) versus epoxomicin [1]: 46%
- relative induction factor (IF % luminescence) versus epoxomicin (concentration tested 10^−5 M): 10%
- relative induction factor (IF % luminescence) versus epoxomicin (concentration tested 10^−6 M): 8%

SMILES: C=C(C(=O)[C@H](OC(=O)CNC(=O)OC(C)(C)C)[C@@H](C)[C@H]1[C@@H](OC(C)=O)C[C@@]2(C)C3CCC4[C@H](C)C(=O)C=C[C@@]45C[C@@]35CC[C@]12C)[C@@H](C)COC(C)=O (stereo partly drawn) [Compound 60, 22-deacetyl-neoboutomellerone 22-(N-Boc-glycinate)-26-acetyl]
- relative induction factor (IF % luminescence) versus epoxomicin [1]: 4%
- relative induction factor (IF % luminescence) versus epoxomicin [2]: 76%
- relative induction factor (IF % luminescence) versus epoxomicin (concentration tested 10^−5 M): 2%
- relative induction factor (IF % luminescence) versus epoxomicin (concentration tested 10^−6 M): 71%

Reference: patent publication US8785424B2, “ngCycloartanone derivatives with anticancer activity” (Pierre Fabre Medicament, priority 2009, dated 2014)
